Columns and labels:
[1] = test system: OVCAR-5; conditions: OVCAR-5 (Ovarian Cancer), 48 hours, SRB
[2] = test system: NCI-H23; conditions: NCI-H23 (Non-Small Cell Lung Cancer), 48 hours, SRB
[3] = test system: HCT-15; conditions: HCT-15 (Colon Cancer), 48 hours, SRB
[4] = test system: HCT-116; conditions: HCT-116 (Colon Cancer), 48 hours, SRB
[5] = test system: NCI/ADR-RES; conditions: NCI/ADR-RES (Breast Cancer), 48 hours, SRB
[6] = test system: NCI-H522; conditions: NCI-H522 (Non-Small Cell Lung Cancer), 48 hours, SRB
[7] = test system: NCI-H460; conditions: NCI-H460 (Non-Small Cell Lung Cancer), 48 hours, SRB
[8] = test system: SF-295; conditions: SF-295 (CNS Cancer), 48 hours, SRB
[9] = test system: OVCAR-4; conditions: OVCAR-4 (Ovarian Cancer), 48 hours, SRB
[10] = test system: T-47D; conditions: T-47D (Breast Cancer), 48 hours, SRB
[11] = test system: MDA-MB-435; conditions: MDA-MB-435 (Breast Cancer), 48 hours, SRB
[12] = test system: MOLT-4; conditions: MOLT-4 (Leukemia), 48 hours, SRB
[13] = test system: SK-MEL-5; conditions: SK-MEL-5 (Melanoma), 48 hours, SRB
[14] = test system: SK-OV-3; conditions: SK-OV-3 (Ovarian Cancer), 48 hours, SRB
[15] = test system: KM12; conditions: KM12 (Colon Cancer), 48 hours, SRB
[16] = test system: LOX IMVI; conditions: LOX IMVI (Melanoma), 48 hours, SRB
[17] = test system: HCC-2998; conditions: HCC-2998 (Colon Cancer), 48 hours, SRB
[18] = test system: SF-268; conditions: SF-268 (CNS Cancer), 48 hours, SRB
[19] = test system: SK-MEL-28; conditions: SK-MEL-28 (Melanoma), 48 hours, SRB
[20] = test system: A549/ATCC; conditions: A549/ATCC (Non-Small Cell Lung Cancer), 48 hours, SRB
[21] = test system: MDA-MB-468; conditions: MDA-MB-468 (Breast Cancer), 48 hours, SRB
[22] = test system: EKVX; conditions: EKVX (Non-Small Cell Lung Cancer), 48 hours, SRB
[23] = test system: HOP-62; conditions: HOP-62 (Non-Small Cell Lung Cancer), 48 hours, SRB
[24] = test system: COLO 205; conditions: COLO 205 (Colon Cancer), 48 hours, SRB
[25] = test system: TK-10; conditions: TK-10 (Renal Cancer), 48 hours, SRB

SMILES: CC1(C)C=Cc2c(ccc3c4c(n(O)c23)C(C)(C)C2CC35CCCN3C(=O)C2(NC5=O)C4SCC(NC(=O)CCC(N)C(=O)O)C(=O)NCC(=O)O)O1 (stereo not shown) [Glutathione Adduct]
- GI50 [1]: 0.971 µM
- TGI [1]: 3.03 µM
- CC50 ([1]; read-out: LC50): 12 µM
- GI50 [2]: 1.09 µM
- TGI [2]: 3.07 µM
- CC50 ([2]; read-out: LC50): 14.9 µM
- GI50 [3]: 0.84 µM
- TGI [3]: 2.04 µM
- CC50 ([3]; read-out: LC50): 4.93 µM
- GI50 [4]: 0.871 µM
- TGI [4]: 1.76 µM
- CC50 ([4]; read-out: LC50): 3.55 µM
- GI50 [5]: 3.94 µM
- TGI [5]: 14 µM
- CC50 ([5]; read-out: LC50): 44.7 µM
- GI50 [6]: 0.727 µM
- TGI [6]: 1.95 µM
- CC50 ([6]; read-out: LC50): 6.29 µM
- GI50 [7]: 1.11 µM
- TGI [7]: 2.41 µM
- CC50 ([7]; read-out: LC50): 23.2 µM
- GI50 [8]: 1.45 µM
- TGI [8]: 6.58 µM
- CC50 ([8]; read-out: LC50): 24.4 µM
- GI50 [9]: 0.742 µM
- TGI [9]: 2.49 µM
- CC50 ([9]; read-out: LC50): 10.1 µM
- GI50 [10]: 0.319 µM
- TGI [10]: 2.47 µM
- CC50 ([10]; read-out: LC50): 46 µM
- GI50 [11]: 1.1 µM
- TGI [11]: 5.2 µM
- CC50 ([11]; read-out: LC50): 22 µM
- GI50 [12]: 0.425 µM
- TGI [12]: 1.75 µM
- CC50 ([12]; read-out: LC50): 20.6 µM
- GI50 [13]: 0.826 µM
- TGI [13]: 1.86 µM
- CC50 ([13]; read-out: LC50): 4.17 µM
- GI50 [14]: 1.3 µM
- TGI [14]: 5.06 µM
- CC50 ([14]; read-out: LC50): 16.1 µM
- GI50 [15]: 0.979 µM
- TGI [15]: 1.91 µM
- CC50 ([15]; read-out: LC50): 3.73 µM
- GI50 [16]: 0.806 µM
- TGI [16]: 1.56 µM
- GI50 [17]: 0.759 µM
- TGI [17]: 1.51 µM
- CC50 ([17]; read-out: LC50): 3.02 µM
- GI50 [18]: 1.13 µM
- TGI [18]: 2.88 µM
- CC50 ([18]; read-out: LC50): 10.9 µM
- GI50 [19]: 0.985 µM
- TGI [19]: 1.95 µM
- CC50 ([19]; read-out: LC50): 3.87 µM
- GI50 [20]: 1.37 µM
- TGI [20]: 3.94 µM
- CC50 ([20]; read-out: LC50): 15.8 µM
- GI50 [21]: 0.674 µM
- TGI [21]: 1.62 µM
- GI50 [22]: 1.11 µM
- TGI [22]: 5.4 µM
- CC50 ([22]; read-out: LC50): 18.9 µM
- GI50 [23]: 6.67 µM
- TGI [23]: 1.38 µM
- CC50 ([23]; read-out: LC50): 28.6 µM
- GI50 [24]: 0.649 µM
- TGI [24]: 15.1 µM
- CC50 ([24]; read-out: LC50): 3.51 µM
- GI50 [25]: 1.09 µM
- TGI [25]: 5.46 µM
- CC50 ([25]; read-out: LC50): 17.4 µM

Reference: patent US20110105515A1, “TARGETING THE ONCOPROTEIN NUCLEOPHOSMIN” (President and Fellows of Harvard College, priority 2007, published 2011)
